Reference: patent US10792289B2 (Horizon Orphan LLC, priority 2009, dated 2020)
Like-named read-outs stand apart in the source and are kept apart here.

System: P. aeruginosa isolates
Experiment: Phase 2 study: MIC of P. aeruginosa isolates to levofloxacin
Type: cell-based
Conditions: Pseudomonas aeruginosa
Method: Efficacy was evaluated by microbiologic assessment of sputum samples, time to need for anti-pseudomonal antimicrobials, the Cystic Fibrosis Questionaire-Revised (CFQ-R), and pulmonary function tests. […] Pair-wise comparisons between all the treatment arms were conducted as secondary analyses.

C[C@H]1COc2c(N3CCN(C)CC3)c(F)cc3c(=O)c(C(=O)O)cn1c23 [Levofloxacin, levofloxacin]
6 µg/mL: MIC50 (24 h, MITT, 240 mg BID, Day 1, read-out: Highest MIC, MIC50) | MIC50 (24 h, Table 14, EE, 240 mg BID, Day 1, read-out: MIC50 (all organisms)) | MIC50 (168 h, MITT, 240 mg BID, Day 7, read-out: Highest MIC, MIC50)
8 µg/mL: MIC50 (24 h, MITT, 120 mg QD, Day 1, read-out: Highest MIC, MIC50) | MIC50 (24 h, Table 14, EE, 120 mg QD, Day 1, read-out: MIC50 (all organisms)) | MIC50 (168 h, MITT, 120 mg QD, Day 7, read-out: Highest MIC, MIC50)
2 µg/mL: MIC50 (168 h, EE, 240 mg QD, Day 7, read-out: MIC50 (all organisms))
32 µg/mL: MIC90 (24 h, EE, 120 mg QD, Day 1, read-out: MIC90 (all organisms)) | MIC90 (24 h, MITT, 120 mg QD, Day 1, read-out: Highest MIC, MIC90) | MIC90 (24 h, MITT, 120 mg QD, Day 1, read-out: MIC90 (all organisms)) | MIC90 (24 h, MITT, 240 mg BID, Day 1, read-out: Highest MIC, MIC90) | MIC90 (24 h, MITT, 240 mg QD, Day 1, read-out: Highest MIC, MIC90) | MIC90 (24 h, MITT, combined 240 mg QD and BID, Day 1, read-out: Highest MIC, MIC90) | MIC90 (24 h, Table 14, EE, 120 mg QD, Day 1, read-out: MIC90 (all organisms)) | MIC90 (24 h, Table 14, EE, 240 mg BID, Day 1, read-out: MIC90 (all organisms)) | MIC90 (24 h, Table 14, EE, 240 mg QD, Day 1, read-out: MIC90 (all organisms)) | MIC90 (24 h, Table 14, EE, combined 240 mg QD and BID, Day 1, read-out: MIC90 (all organisms)) | MIC90 (168 h, MITT, 120 mg QD, Day 7, read-out: Highest MIC, MIC90) | MIC90 (168 h, MITT, 240 mg BID, Day 7, read-out: Highest MIC, MIC90)
16 µg/mL: MIC90 (24 h, EE, 240 mg BID, Day 1, read-out: MIC90 (all organisms)) | MIC90 (24 h, EE, 240 mg QD, Day 1, read-out: MIC90 (all organisms)) | MIC90 (24 h, EE, combined 240 mg QD and BID, Day 1, read-out: MIC90 (all organisms)) | MIC90 (24 h, MITT, 240 mg BID, Day 1, read-out: MIC90 (all organisms)) | MIC90 (24 h, MITT, 240 mg QD, Day 1, read-out: MIC90 (all organisms)) | MIC90 (24 h, MITT, combined 240 mg QD and BID, Day 1, read-out: MIC90 (all organisms)) | MIC90 (168 h, EE, 120 mg QD, Day 7, read-out: MIC90 (all organisms)) | MIC90 (168 h, EE, 240 mg BID, Day 7, read-out: MIC90 (all organisms)) | MIC90 (168 h, EE, 240 mg QD, Day 7, read-out: MIC90 (all organisms)) | MIC90 (168 h, EE, combined 240 mg QD and BID, Day 7, read-out: MIC90 (all organisms)) | MIC90 (168 h, MITT, 120 mg QD, Day 7, read-out: MIC90 (all organisms)) | MIC90 (168 h, MITT, 240 mg BID, Day 7, read-out: MIC90 (all organisms)) | MIC90 (168 h, MITT, 240 mg QD, Day 7, read-out: Highest MIC, MIC90)
4 µg/mL: MIC50 (24 h, EE, 120 mg QD, Day 1, read-out: MIC50 (all organisms)) | MIC50 (24 h, EE, 240 mg BID, Day 1, read-out: MIC50 (all organisms)) | MIC50 (24 h, EE, 240 mg QD, Day 1, read-out: MIC50 (all organisms)) | MIC50 (24 h, EE, combined 240 mg QD and BID, Day 1, read-out: MIC50 (all organisms)) | MIC50 (24 h, MITT, 120 mg QD, Day 1, read-out: MIC50 (all organisms)) | MIC50 (24 h, MITT, 240 mg BID, Day 1, read-out: MIC50 (all organisms)) | MIC50 (24 h, MITT, 240 mg QD, Day 1, read-out: Highest MIC, MIC50) | MIC50 (24 h, MITT, 240 mg QD, Day 1, read-out: MIC50 (all organisms)) | MIC50 (24 h, MITT, combined 240 mg QD and BID, Day 1, read-out: Highest MIC, MIC50) | MIC50 (24 h, MITT, combined 240 mg QD and BID, Day 1, read-out: MIC50 (all organisms)) | MIC50 (24 h, Table 14, EE, 240 mg QD, Day 1, read-out: MIC50 (all organisms)) | MIC50 (24 h, Table 14, EE, combined 240 mg QD and BID, Day 1, read-out: MIC50 (all organisms)) | MIC50 (168 h, EE, 120 mg QD, Day 7, read-out: MIC50 (all organisms)) | MIC50 (168 h, EE, 240 mg BID, Day 7, read-out: MIC50 (all organisms)) | MIC50 (168 h, EE, combined 240 mg QD and BID, Day 7, read-out: MIC50 (all organisms)) | MIC50 (168 h, MITT, 120 mg QD, Day 7, read-out: MIC50 (all organisms)) | MIC50 (168 h, MITT, 240 mg BID, Day 7, read-out: MIC50 (all organisms)) | MIC50 (168 h, MITT, 240 mg QD, Day 7, read-out: Highest MIC, MIC50)
